This passage reports GI50 and TGI results from PubChem BioAssay (NCI).

Where “and” joins values, the source holds several entries; their conditions need not be identical. Equal values may be shown once.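 Exposure lasted 48 hours, with cells grown in 96-well plates and compounds tested at five concentrations. GI50 is the concentration that inhibits growth by half. At the TGI there is no net growth.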

Experiment in all cases: NCI anticancer screen, dose series, 48 h
Assay [1] deals with A549 NSCLC.
Assay [2] deals with DU-145 prostate.
For assay [3], the system named is HCT-116 colon.
The test system of assay [4] is NCI-H522 lung.
Assay [5] concerns SF-268 CNS.
Assay [6] has as its system SNB-75 CNS.
Assay [7] relates to SW-620 colon.
The test system of assay [8] is T-47D breast.
For assay [9], the system named is UACC-62 melanoma.
Assay [10] deals with UO-31 renal.

On to `c1ccc(-c2[nH]ncc2-c2ccnc(-c3ccc(OCCn4ccnc4)cc3)c2)nc1`, for which the GI50 in assay [1], in assay [2], in [3], in assay [4], in [5] and in assay [6] was > 25 µM throughout. Moreover, the GI50 was > 25 µM in assay [7], 5.68 µM in assay [8], > 25 µM in assay [9] and 6.57 µM in assay [10]. The TGI in assay [1], in [2], in assay [3], in assay [4], in assay [5] and in assay [6] was > 25 µM throughout. Also, the TGI in [7], in [8], in assay [9] and in assay [10] was > 25 µM each time.

In the case of `Cn1c([N+](=O)[O-])cnc1C=C1C(=O)c2ccccc2C1=O`, the GI50 in [1] was 12.2 µM; in assay [2], 6.45 µM; in assay [3], 3.77 µM; in assay [4], 1.89 µM; in assay [5] it was 3.95 µM; in assay [6], 2.99 µM. In addition, the GI50 in assay [7] is 3.34 µM; in [8] it was 11.4 µM; in assay [9], 2.04 µM; in assay [10] it was 3.83 µM. For the same compound, the TGI in assay [1] was found to be 41.3 µM; in [2], 19.6 µM; in [3], 13.1 µM; in [4], 4.37 µM; in assay [5], 16.7 µM; in assay [6], 39.6 µM. Besides, the TGI in assay [7] is 13.1 µM; in assay [8], 44.6 µM; in assay [9], 5.75 µM; in [10], 16.2 µM.

With `Cc1nn(-c2ccc(Cl)cc2)c2ncnc(N/N=C/c3ccccc3O)c12`, the GI50 in assay [1] was 1.77 µM and 0.699 µM; in assay [2] it was 0.488 µM and 0.472 µM; in assay [3], 0.373 µM and 0.701 µM; in assay [4] it was 0.874 µM and 0.321 µM; in assay [5] it was 0.401 µM and 0.312 µM; in assay [6], 4.03 µM and 0.501 µM. The GI50 is 1.35 µM and 0.505 µM in assay [7]; 2.09 µM and 0.89 µM in [8]; 1.6 µM and 0.91 µM in assay [9]; 0.331 µM and 0.251 µM in assay [10]. The TGI is 17.2 µM and 16 µM in assay [1]; 16.4 µM and > 100 µM in [2]; 20.7 µM and > 43.3 µM in assay [3]; > 69.6 µM in assay [4]; 15.9 µM and > 37.3 µM in [5]; 37.9 µM and 4.49 µM in [6]. Moreover, the TGI was > 100 µM in assay [7]; > 100 µM and 23.5 µM in assay [8]; 19.9 µM and 6.95 µM in assay [9]; 3.01 µM and 3.35 µM in [10].

On to `Cc1ccc2c(-c3ccnc(Nc4ccc5c(c4)OCCO5)n3)c(-c3ccc(C(F)(F)F)cc3)nn2n1`, for which the GI50 is 13.3 µM in assay [1]; > 20.6 µM in assay [2]; 7.32 µM in assay [3]; 4.57 µM in assay [4]; > 25 µM in assay [5]; > 8.65 µM in assay [6]. In addition, the GI50 in assay [7] is > 25 µM; in assay [8], 1.78 µM; in [9], 5.84 µM; in [10], 2.41 µM. The TGI is > 25 µM in assay [1]; > 25 µM in assay [2]; > 25 µM in assay [3]; 21.4 µM in [4]; > 25 µM in assay [5]; > 25 µM in assay [6]. Further, the TGI in [7], in assay [8], in [9] and in assay [10] was > 25 µM throughout.

`CNC(=O)c1ncccc1Nc1nc(Nc2cc3c(cc2OC)CCCN3C(=O)CN(C)C)nc2[nH]ccc12`: the GI50 in [1] was 0.845 µM; in assay [2], 0.753 µM; in [3] it was 1.11 µM; in assay [4], 0.638 µM; in [5] it was 1.46 µM; in assay [6], 3.03 µM. The GI50 was 0.224 µM in assay [7], 3.37 µM in [8], 3.07 µM in assay [9] and 2.71 µM in assay [10]. Besides, the TGI in assay [1] was 4.39 µM; in assay [2] it was 3.02 µM; in [3] it was 4.89 µM; in assay [4] it was 2.84 µM; in [5], 5.4 µM; in assay [6] it was 6.43 µM. Further, the TGI came out at 3.22 µM in [7], 9.19 µM in assay [8], 6.45 µM in assay [9] and 6.45 µM in assay [10].

In the case of `COCC([C@@H](O)C(O)C(=O)NCC[C@@H](C)c1nc(/C=C/CC2OC3(C[C@H](O)C2C)OC(C(C[C@H](O)C(C)[C@H](O)C(C)/C=C(C)/C(C)=C/C=C/C(C)=C/C#N)OC)[C@@H](OP(=O)(O)O)C3(C)C)co1)N(C)C` (stereo partly specified), the TGI was 0.00147 µM in assay [1]; 0.000322 µM in assay [2]; 0.000315 µM in [3]; 0.000308 µM in [4]; 0.000344 µM in [5]; 0.000327 µM in assay [6]. Further, the TGI was 0.000327 µM in assay [7], 0.00195 µM in [8], 0.000341 µM in assay [9] and 0.00279 µM in assay [10].

With `Cc1cc(O)c2c(c1)C(=O)C=CC2=O`, the TGI in assay [1] is 58 µM and 42.9 µM; in assay [2], 30.8 µM and 46.7 µM; in assay [3], 10.2 µM and > 20.2 µM; in assay [4] it was 8.05 µM and 3.06 µM; in assay [5], 48.3 µM and 31.5 µM; in [6], 34 µM and 30 µM. The TGI was 23.9 µM and 22.4 µM in assay [7]; 7.47 µM and 16.4 µM in assay [8]; 18.9 µM and 25.3 µM in [9]; 11.4 µM and 16.2 µM in assay [10]. The GI50 in assay [4] is 3.8 µM and 1.46 µM; in assay [7] it was 7.3 µM and 2.67 µM.

Take `CC1=C(C(=O)Nc2ccccc2)C(c2ccc(N(C)C)cc2)C(C(=O)Nc2ccccc2)=C(C)N1`: the TGI in assay [1] is 98.9 µM; in assay [2] it was > 91.7 µM; in [3], > 57.3 µM; in [4], 81.2 µM; in assay [5] it was > 71.6 µM; in [6], > 100 µM. Moreover, the TGI is > 83 µM in assay [7], > 93.6 µM in [8], 23.9 µM in [9] and 65.4 µM in assay [10].

Regarding `OC1(c2ccc(Cl)c(C(F)(F)F)c2)CCN(CCCC(c2ccc(F)cc2)c2ccc(F)cc2)CC1`, the GI50 in assay [1] is 0.837 µM; in assay [2], 0.897 µM; in [3], 0.734 µM; in assay [4] it was 0.902 µM; in [5], 0.894 µM; in [6], 0.713 µM. Moreover, the GI50 in assay [7] was 0.76 µM; in assay [8], 0.941 µM; in assay [9], 0.81 µM; in assay [10] it was 0.714 µM. In addition, the TGI in assay [1] was determined as 1.58 µM; in assay [2], 1.66 µM; in assay [3], 1.41 µM; in assay [4], 1.79 µM; in assay [5], 1.88 µM; in assay [6] it was 1.43 µM. Further, the TGI in assay [7] turned out to be 1.43 µM; in assay [8] it was 1.84 µM; in assay [9], 1.5 µM; in assay [10], 2.72 µM.

For `COc1cc2c(cc1Nc1nc(N3CCc4ccccc43)c3cc[nH]c3n1)N(C(=O)CN(C)C)CC2`, the GI50 is 3.34 µM in assay [1]; 1.71 µM in assay [2]; 1.33 µM in assay [3]; 3.94 µM in assay [4]; 5.03 µM in [5]; 4.88 µM in assay [6]. For the same compound, the GI50 in [7] was 0.35 µM; in assay [8], 7.91 µM; in assay [9], 4.71 µM; in assay [10], 5.26 µM. Besides, the TGI is 8.88 µM in assay [1]; 3.87 µM in [2]; 2.91 µM in assay [3]; 11.7 µM in assay [4]; 10.3 µM in assay [5]; 9.97 µM in assay [6]. For the same compound, the TGI stood at 0.8 µM in [7], 16.7 µM in [8], 9.08 µM in assay [9] and 11.6 µM in assay [10].

For the compound `COc1ccc2c(c1)C(=O)c1c-2c(Nc2ccccc2OC)nc2ccccc12`, the GI50 in assay [1], in assay [2], in assay [3], in assay [4], in assay [5] and in [6] was > 100 µM in each case. Besides, the GI50 in assay [7], in assay [8], in [9] and in assay [10] was > 100 µM throughout. Moreover, the TGI in [1], in [2], in [3], in [4], in [5] and in assay [6] was > 100 µM throughout. In addition, the TGI in [7], in assay [8], in assay [9] and in assay [10] was > 100 µM throughout.

Turning to `Nc1nc2c(c3cnccc13)C(c1ccc(Cl)c(Cl)c1)Cc1cnccc1-2` (stereo unspecified), the GI50 was 0.665 µM in [1]; 0.615 µM in assay [2]; 0.432 µM in [3]; 0.249 µM in assay [4]; 1.18 µM in assay [5]; 0.368 µM in assay [6]. Further, the GI50 in [7] is 0.449 µM; in assay [8] it was 0.333 µM; in assay [9], 0.352 µM; in assay [10], 1.54 µM. Moreover, the TGI in assay [1] came out at 4.84 µM; in assay [2], 11.2 µM; in assay [3] it was 11.2 µM; in [4], 0.73 µM; in [5], 18.3 µM; in [6] it was 12.1 µM. Further, the TGI is 11.5 µM in assay [7], 18.2 µM in [8], 2.44 µM in [9] and 6.72 µM in assay [10].

As for `Nc1ncnc2c1N=C(c1ccc3c(c1)OCO3)CC(c1ccc(Cl)cc1)N2` (stereo unspecified), the GI50 in assay [1] is 11.6 µM; in assay [2] it was 16.8 µM; in assay [3] it was 10.7 µM; in assay [4], 2.37 µM; in [5], 8.52 µM; in assay [6], 5.22 µM. Further, the GI50 in assay [7] is 4.91 µM; in [8], 20.9 µM; in assay [9], 72.1 µM; in [10], 7.47 µM. The TGI was 30.1 µM in assay [1]; 33.3 µM in [2]; 22.5 µM in assay [3]; > 100 µM in assay [4]; 45.9 µM in [5]; 38.3 µM in assay [6]. Besides, the TGI in assay [7], in assay [8], in assay [9] and in assay [10] was > 100 µM in each case.

In the case of `Cc1c(C(=N)C(C#N)C#N)c(=N)oc2c1ccc1ccccc12`, the GI50 in assay [1] is 32.9 µM; in assay [2], 25.3 µM; in [3], 17.6 µM; in assay [4], 8 µM; in assay [5] it was 46.5 µM; in assay [6], 13.6 µM. Besides, the GI50 in assay [7] was 18.4 µM; in assay [8] it was 10.1 µM; in assay [9] it was 13 µM; in assay [10] it was 8.23 µM. Moreover, the TGI is > 100 µM in [1]; > 100 µM in [2]; > 100 µM in [3]; 25.7 µM in [4]; > 100 µM in assay [5]; 48.9 µM in assay [6]. In addition, the TGI in assay [7] is 56.1 µM; in assay [8], > 100 µM; in assay [9], 32.3 µM; in [10], > 100 µM.

Regarding `CN[C@@H](C)C(=O)N[C@H]1CN(S(=O)(=O)c2cccc(S(=O)(=O)N3CC[C@H]4CC[C@@H](C(=O)NC(c5ccccc5)c5ccccc5)N4C(=O)[C@@H](NC(=O)[C@H](C)NC)C3)c2)CC[C@H]2CC[C@@H](C(=O)NC(c3ccccc3)c3ccccc3)N2C1=O`, the GI50 is > 53.1 µM in assay [1]; 15.1 µM in [2]; 18.4 µM in assay [3]; 2.43 µM in assay [4]; 20.9 µM in assay [5]; 31.7 µM in assay [7]. Also, the GI50 in assay [8] is 23.6 µM; in [9], 18 µM; in assay [10], > 73 µM. Further, the TGI is > 100 µM in [1]; 28.3 µM in [2]; 51.2 µM in assay [3]; 34.8 µM in [4]; 47.8 µM in [5]; 0.721 µM in [6]. Further, the TGI in assay [7] was > 100 µM; in assay [8], > 100 µM; in assay [9] it was 38.9 µM; in [10], > 100 µM.
